# Measured values: patent US20260015358A1, “BICYCLIC DERIVATIVES, COMPOSITIONS AND USES THEREOF” (Danatlas Pharmaceuticals Co., Ltd., priority 2023, published 2026)
# Biological target: WRN [UniPro: Q14191 (WRN_HUMAN), N500-C946] (Homo sapiens (Human), UniProt Q14191)
# Assay: WRN unwinding assay (FORKF DNA, fluorescence)
# Assay type: biochemical
# Details: Table 14
# Procedure: WRN unwinding assay was initiated to evaluate potential inhibitory effect of compounds for WEN helicase activity. WRN [UniPro: Q14191 (WRN_HUMAN), N500-C946] was expressed and purified in insect system and stored at −80° C. in aliquots. […] Compounds dissolved in DMSO (Sigma, D8418) were plated into a 96-well intermediate plate (BioFil, VWP-032-096) for 3-fold serial titration for 10 points using DMSO, and well-to-well transfer the titrated compounds into another 96-well intermediate plate including assay buffer in advance. Shake the 96-well intermediate plate at 600 rpm for 10 min. to fully mix. Specifically, a 3× working mixture of WRN was diluted to a concentration of 60 nM in assay buffer. […] After centrifuging at 1000 rpm and shaking at 500 rpm, the assay plate was pre-incubated for 30 min. Then, […] 3×FORKF DNA and ATP working mixture was dispensed into assay plate. Plate was sealed, centrifuged and incubated for an additional 40 min. at 25° C. […] Each concentration of compound was tested in duplicates in the assay plate. Average fluorescence signal of high control (Wells with 1% DMSO) was calculated as High Control (HC). Average fluorescence signal of low control (Wells with no WRN protein) was calculated as Low control (LC).
# IC50 values were determined by fitting the data to the standard 4 parameters with Hill Slope using GraphPad Prism software.
# Sequence of WRN [UniPro: Q14191 (WRN_HUMAN), N500-C946] (Q14191 500-946): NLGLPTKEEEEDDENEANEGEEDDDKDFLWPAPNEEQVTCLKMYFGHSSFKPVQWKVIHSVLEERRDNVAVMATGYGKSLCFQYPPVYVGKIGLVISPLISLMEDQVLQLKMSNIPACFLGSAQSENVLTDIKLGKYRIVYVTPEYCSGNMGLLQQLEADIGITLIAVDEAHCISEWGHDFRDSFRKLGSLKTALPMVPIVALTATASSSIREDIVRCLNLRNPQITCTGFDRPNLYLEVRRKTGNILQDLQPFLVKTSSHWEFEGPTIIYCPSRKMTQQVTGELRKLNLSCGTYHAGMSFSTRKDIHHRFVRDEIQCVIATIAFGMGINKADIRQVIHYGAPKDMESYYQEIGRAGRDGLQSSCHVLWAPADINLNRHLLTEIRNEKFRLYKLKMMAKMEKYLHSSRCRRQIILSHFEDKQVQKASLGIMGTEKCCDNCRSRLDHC
row,SMILES,IC50 [nM]
1,"CCc1c(N2CCN(C(=O)CNC(=O)c3ccc(Cl)cc3Cl)CC2)c(=O)n2nc(C3=CCOCC3)nc2n1CC(=O)Nc1ccc(C(F)(F)F)cc1Cl [Example 127, 2,4-Dichloro-N-(2-(4-(4-(2-((2-chloro-4-(trifluoromethyl)phenyl)amino)-2-oxoethyl)-2-(3,6-dihydro-2H-pyran-4-yl)-5-ethyl-7-oxo-4,7-dihydro-[1,2,4]triazolo[1,5-a]pyrimidin-6-yl)piperazin-1-yl)-2-oxoethyl)benzamide]",100 to 1000
2,"CCc1c(N2CCN(C(=O)CN(C)C(=O)c3ccccc3)CC2)c(=O)n2nc(C3=CCOCC3)nc2n1CC(=O)Nc1ccc(C(F)(F)F)cc1Cl [Example 135, N-(2-(4-(4-(2-((2-Chloro-4-(trifluoromethyl)phenyl)amino)-2-oxoethyl)-2-(3,6-dihydro-2H-pyran-4-yl)-5-ethyl-7-oxo-4,7-dihydro-[1,2,4]triazolo[1,5-a]pyrimidin-6-yl)piperazin-1-yl)-2-oxoethyl)-N-methylbenzamide]",< 100
3,"CCc1c(N2CCN(C(=O)C(C)(C)NC(=O)c3ccccc3)CC2)c(=O)n2nc(C3=CCOCC3)nc2n1CC(=O)Nc1ccc(C(F)(F)F)cc1Cl [Example 137, N-(1-(4-(4-(2-((2-Chloro-4-(trifluoromethyl)phenyl)amino)-2-oxoethyl)-2-(3,6-dihydro-2H-pyran-4-yl)-5-ethyl-7-oxo-4,7-dihydro-[1,2,4]triazolo[1,5-a]pyrimidin-6-yl)piperazin-1-yl)-2-methyl-1-oxopropan-2-yl)benzamide]",> 1000
4,"CCc1c(N2CCC3(CCN(C(=O)CNC(=O)c4ccccc4)C3)C2)c(=O)n2nc(C3=CCOCC3)nc2n1CC(=O)Nc1ccc(C(F)(F)F)cc1Cl (centres unmarked) [Example 139, N-(2-(7-(4-(2-((2-Chloro-4-(trifluoromethyl)phenyl)amino)-2-oxoethyl)-2-(3,6-dihydro-2H-pyran-4-yl)-5-ethyl-7-oxo-4,7-dihydro-[1,2,4]triazolo[1,5-a]pyrimidin-6-yl)-2,7-diazaspiro[4.4]nonan-2-yl)-2-oxoethyl)benzamide]",> 1000
5,"CCc1c(N2CC3CN(C(=O)CNC(=O)c4ccccc4F)CC3C2)c(=O)n2nc(C3=CCOCC3)nc2n1CC(=O)Nc1ccc(C(F)(F)F)cc1Cl (centres unmarked) [Example 140, N-(2-(5-(4-(2-((2-Chloro-4-(trifluoromethyl)phenyl)amino)-2-oxoethyl)-2-(3,6-di hydro-2H-pyran-4-yl)-5-ethyl-7-oxo-4,7-dihydro-[1,2,4]triazolo[1,5-a]pyrimidin-6-yl)hexahydropyrrolo[3,4-c]pyrrol-2(1H)-yl)-2-oxoethyl)-2-fluorobenzamide]",> 1000
6,"O=C(Cn1c(O)c(N2CCN(C(=O)CNC(=O)c3ccccc3)CC2)c(=O)n2nc(C3=CCOCC3)nc12)Nc1ccc(C(F)(F)F)cc1Cl [Example 142, N-(2-(4-(4-(2-((2-Chloro-4-(trifluoromethyl)phenyl)amino)-2-oxoethyl)-2-(3,6-dihydro-2H-pyran-4-yl)-5-hydroxy-7-oxo-4,7-dihydro-[1,2,4]triazolo[1,5-a]pyrimidin-6-yl)piperazin-1-yl)-2-oxoethyl)benzamide]",100 to 1000
7,"CCc1c(N2CCN(C(=O)CNC(=O)c3ccccc3F)CC2)c(=O)n2nc(C3=CCOCC3)nc2n1CC(=O)Nc1ccc(S(F)(F)(F)(F)F)cc1C [Example 145, N-(2-(4-(2-(3,6-Dihydro-2H-pyran-4-yl)-5-ethyl-4-(2-((2-methyl-4-(pentafluoro-16-sulfanyl)phenyl)amino)-2-oxoethyl)-7-oxo-4,7-dihydro-[1,2,4]triazolo[1,5-a]pyrimidin-6-yl)piperazin-1-yl)-2-oxoethyl)-2-fluorobenzamide]",100 to 1000

# Second part, the compound after the results:
row,IC50 [nM],SMILES
1,100 to 1000,"CCc1c(N2CCN(C(=O)CNC(=O)c3ccccc3F)CC2)c(=O)n2nc(C3=CCOCC3)nc2n1CC(=O)Nc1sc(C)cc1Cl [Example 151, N-(2-(4-(4-(2-((3-chloro-5-methylthiophen-2-yl)amino)-2-oxoethyl)-2-(3,6-dihydro-2H-pyran-4-yl)-5-ethyl-7-oxo-4,7-dihydro-[1,2,4]triazolo[1,5-a]pyrimidin-6-yl)piperazin-1-yl)-2-oxoethyl)-2-fluorobenzamide]"
2,> 1000,"CCc1c(N2CCN(C(=O)CNC(=O)c3ccccc3F)CC2)c(=O)n2nc(C3=CCOCC3)nc2n1CC(=O)Nc1nnc(C(F)(F)F)s1 [Example 155, N-(2-(4-(2-(3,6-Dihydro-2H-pyran-4-yl)-5-ethyl-7-oxo-4-(2-oxo-2-((5-(trifluoromethyl)-1,3,4-thiadiazol-2-yl)amino)ethyl)-4,7-dihydro-[1,2,4]triazolo[1,5-a]pyrimidin-6-yl)piperazin-1-yl)-2-oxoethyl)-2-fluorobenzamide]"
3,> 1000,"CCc1c(N2CCN(C(=O)CNC(=O)c3ccccc3F)CC2)c(=O)n2nc(C3=CCOCC3)nc2n1CC(=O)Nc1nnc(C2CC2)s1 [Example 156, N-(2-(4-(4-(2-((5-Cyclopropyl-1,3,4-thiadiazol-2-yl)amino)-2-oxoethyl)-2-(3,6-dihydro-2H-pyran-4-yl)-5-ethyl-7-oxo-4,7-dihydro-[1,2,4]triazolo[1,5-a]pyrimidin-6-yl)piperazin-1-yl)-2-oxoethyl)-2-fluorobenzamide]"
4,100 to 1000,"CCc1c(N2CCN(C(=O)CNC(=O)c3ccccc3F)CC2)c(=O)n2nc(C3=CCOCC3)nc2n1CC(=O)Nc1ncc(C(F)(F)F)s1 [Example 158, N-(2-(4-(2-(3,6-Dihydro-2H-pyran-4-yl)-5-ethyl-7-oxo-4-(2-oxo-2-((5-(trifluoromethyl)thiazol-2-yl)amino)ethyl)-4,7-dihydro-[1,2,4]triazolo[1,5-a]pyrimidin-6-yl)piperazin-1-yl)-2-oxoethyl)-2-fluorobenzamide]"
5,100 to 1000,"CCc1c(N2CCN(C(=O)CNC(=O)c3ccccc3F)CC2)c(=O)n2nc(C3=CCOCC3)nc2n1CC(=O)Nc1nc(C)cs1 [Example 159, N-(2-(4-(2-(3,6-Dihydro-2H-pyran-4-yl)-5-ethyl-4-(2-((4-methylthiazol-2-yl)amino)-2-oxoethyl)-7-oxo-4,7-dihydro-[1,2,4]triazolo[1,5-a]pyrimidin-6-yl)piperazin-1-yl)-2-oxoethyl)-2-fluorobenzamide]"
6,> 1000,"CCc1c(N2CCN(C(=O)CNC(=O)c3ccccc3F)CC2)c(=O)n2nc(C3=CCOCC3)nc2n1CC(=O)Nc1cc(C)no1 [Example 160, N-(2-(4-(2-(3,6-Dihydro-2H-pyran-4-yl)-5-ethyl-4-(2-((3-methylisoxazol-5-yl)amino)-2-oxoethyl)-7-oxo-4,7-dihydro-[1,2,4]triazolo[1,5-a]pyrimidin-6-yl)piperazin-1-yl)-2-oxoethyl)-2-fluorobenzamide]"
7,100 to 1000,"CCc1c(N2CCN(C(=O)CNC(=O)c3ccc(Cl)cc3)CC2)c(=O)n2nc(C3=CCOCC3)nc2n1CC(=O)Nc1ccc(C(F)(F)F)cc1Cl [Example 164, 4-Chloro-N-(2-(4-(4-(2-((2-chloro-4-(trifluoromethyl)phenyl)amino)-2-oxoethyl)-2-(3,6-dihydro-2H-pyran-4-yl)-5-ethyl-7-oxo-4,7-dihydro-[1,2,4]triazolo[1,5-a]pyrimidin-6-yl)piperazin-1-yl)-2-oxoethyl)benzamide]"
